Measured values taken from patent US8252832B2, “Kinesin inhibitors as cancer therapeutics” (Novartis AG, priority 2007, dated 2012).

Columns and labels:
AGS = experiment: CellTiter-Glo proliferation, 72 hours; assay type: cell-based; conditions: Homo sapiens, Gastric
Excerpt: (§1) Cell lines used were as follows: HCT-116 (National Cancer Institute's DCTF Tumor Repository, catalog #NCI-502568, Rockville, Md.), HCT-15 (National Cancer Institute's DCTF Tumor Repository, catalog#NCI-502711, Rockville, Md. available from American Type Tissue Collection, catalog #CLL-225), KB-3-1 (available from DSMZ, Deutsche Sammlung von Mikroorganismen und Zellkulturen GmbH (German Collection of Microorganisms and Cell Cultures—catalog number ACC 158), KB-V1 (available from DSMZ—catalog number ACC 149), AGS (available from American Type Culture Collection, Manassas Va., catalog number CRL-1739™), N87 (available from American Type Culture Collection, Manassas Va., catalog number CRL-5822), Hel92.1.7 (available from American Type Culture Collection, Manassas Va., catalog number TIB 180), K562 (available from American Type Culture Collection, Manassas Va., catalog number CRL-243™), MV4; 11 (American Tissue Culture Collection, Manassas Va., catalog number CRL-9591) and U937 (available from American Type Culture Collection, Manassas Va., catalog number CRL-1593.2).
(§2) Cells were plated in 96-well plates at densities of about 500 cells per well of a 96-well plate and allowed to grow for 24 hours. The cells were then treated with various concentrations of compounds for 72 hours. Then, 100 μl of CellTiter-Glo® reagent was added (Promega Corporation). CellTiter-Glo® is used in a homogeneous method of determining the number of viable cells using the single CellTiter-Glo® reagent to detect ATP (U.S. Pat. Nos. 6,602,677 and 7,241,584) (see Promega product catalog #G7570). Following the addition of the CellTiter-Glo® reagent, the cells were incubated in the dark for 30 minutes. The amount of luminescence was determined for each well using a Wallac Trilux plate reader, which correlates with the number of cells per well. The number of viable cells in the wells that receive only DMSO (0.5%) served as an indication of 0% inhibition, while wells without cells served as 100% inhibition of cell growth. […] This broad activity is consistent with a compound that is a mitotic inhibitor.

HCT-116 = experiment: CellTiter-Glo proliferation, 72 hours; assay type: cell-based; conditions: Homo sapiens; Colon, HCT-116, 72 hours
Excerpt: as §1, §2

HCT-15 = experiment: CellTiter-Glo proliferation, 72 hours; assay type: cell-based; conditions: Homo sapiens; Colon, HCT-15, 72 hours
Excerpt: as §1, §2

Hel92.1.7 = experiment: CellTiter-Glo proliferation, 72 hours; assay type: cell-based; conditions: Homo sapiens, HEL 92.1.7; Leukemia, Hel92.1.7, 72 hours
Excerpt: as §1, §2

K562 = experiment: CellTiter-Glo proliferation, 72 hours; assay type: cell-based; conditions: Homo sapiens; Leukemia, K562, 72 hours
Excerpt: as §1, §2

KB3.1 = experiment: CellTiter-Glo proliferation, 72 hours; assay type: cell-based; conditions: Homo sapiens, KB 3-1; Epidermoid, KB3.1, 72 hours
Excerpt: as §1, §2

KBV1 = experiment: CellTiter-Glo proliferation, 72 hours; assay type: cell-based; conditions: Homo sapiens, KB-V1; Epidermoid, KBV1, 72 hours
Excerpt: as §1, §2

MV4-11 = experiment: CellTiter-Glo proliferation, 72 hours; assay type: cell-based; conditions: Homo sapiens; Leukemia, MV4-11, 72 hours
Excerpt: as §1, §2

N87 = experiment: CellTiter-Glo proliferation, 72 hours; assay type: cell-based; conditions: Gastric, N87, 72 hours
Excerpt: as §1, §2

U937 = experiment: CellTiter-Glo proliferation, 72 hours; assay type: cell-based; conditions: Homo sapiens, U-937; Leukemia, U937, 72 hours
Excerpt: as §1, §2

[1] = MV4; 11-luc disseminated disease model, host response; assay type: in vivo, mouse; conditions: q4d × 3, i.v
Description: The efficacy study in the disseminated disease model was performed using immunodeficient NOD-SCID female mice approximately 7-8 weeks old (Jackson Laboratories, Bar Harbor, Me.). […] Routine animal care and assurance of welfare were as described above. […] Doses were adjusted to each animal's body weight. […] Approximately 10 minutes prior to imaging, mice were injected i.p. with 150 mg/kg luciferin (Xenogen Corporation, Alameda, Calif.), followed by anesthetization with isoflurane. Photon emission was measured using a charge coupled device camera in the IVIS imaging system (Xenogen Corporation). Briefly, a gray-scale image of the mice was captured, followed by an overlay of a bioluminescence map representing the spatial distribution of photons detected from cleaved luciferin in the cancer cells expressing luciferase. Signal intensity was quantified using a customized version of the IGOR Pro version 4.09A Software (WaveMetrics, Inc., Lake Oswego, Oreg.) called Living Image version 2.50.2 (Xenogen). The sum of all detected photon counts from the dorsal+ventral views was determined. Bioluminescence of cancer cells in the animals was measured by imaging on designated days until the first mice developed hind limb paralysis due to disease burden, the main end point for when to humanely euthanize mice. The day of euthanasia for each mouse was recorded and the remaining percentage of mice surviving was plotted over time (Kaplan-Meier survival analysis). P values were calculated using the log-rank test (GraphPad Prism 4.0 software) to assess differences between treated and control groups (p<0.05 was considered significant). […] Data analysis was performed as described above.

SMILES: CC(C)(C)[C@H](c1nc(-c2cc(F)ccc2F)cn1Cc1ccccc1)N(CC[C@H](N)CF)C(=O)CO [Compound IIa]
- GI50 (AGS): 200 pM
- GI50 (HCT-116): 100 pM
- GI50 (HCT-15): 300 pM
- GI50 (Hel92.1.7): 500 pM
- GI50 (K562): 100 pM
- GI50 (KB3.1): 600 pM
- GI50 (KBV1): 6500 pM
- GI50 (MV4-11): 200 pM
- GI50 (N87): 1000 pM
- GI50 (U937): 100 pM
- % Max. Δ body weight, (Day) ([1]; 0.25 mg/kg, D5): 5.6 ± 1.3%
- Max. Δ body weight (g) (Day) ([1]; 0.25 mg/kg, D5): 1.1 ± 0.44 g
- % Max. Δ body weight, (Day) ([1]; 0.5 mg/kg, D10): −2.6 ± 2.3%
- Max. Δ body weight (g) (Day) ([1]; 0.5 mg/kg, D10): -0.57 ± 0.45 g
- % Max. Δ body weight, (Day) ([1]; 1 mg/kg, D10): −4.2 ± 1.7%
- Max. Δ body weight (g) (Day) ([1]; 1 mg/kg, D10): -0.77 ± 0.32 g
